# From patent EP0540859B1, “Anthracycline prodrugs” (Bristol-Myers Squibb Company, priority 1987, dated 1989)
# Like-named read-outs stand apart in the source and are kept apart here.
# Columns and labels:
# penicillin V amidase = assay: Hydrolysis of APO to adriamycin by PVA or L6-PVA conjugate (HPLC); format: biochemical, Fusarium oxysporum
# Method: The ability of the antibody-PVA conjugate, L6-PVA, to convert the novel prodrug, APO, to adriamycin was measured as follows: either a) PVA alone (final concentration:50 µg/ml), b) 100 µg/ml of the L6-PVA conjugate (final PVA concentration: 25 µg/ml) or c) 10 µg/ml of L6-PVA (final PVA concentration: 2.5 µg/ml) were added to a solution of APO (0.1 mM) in PBS. Each reaction was monitored by HPLC using a Phenominex C-18 column (3 µm, 4.5 x 100 mm) and a gradient elution of 20-60% tetrahydrofuran in water with 0.1% H3PO4 (1.0 ml/min, monitored at 495 nm). Under these conditions, the adriamycin eluted at 8.9 minutes and the APO eluted at 12.2 minutes.
# H2981 tumor cells [1] = assay: 3H-thymidine uptake assay on H2981 cells, PVA conjugates with APO; format: cell-based; details: Homo sapiens; H2981 cells untreated with any conjugate
# Method: The in vitro cytotoxic effect of the antibody-PVA/ adriamycin prodrug combination of the invention toward H2981 tumor cells was measured using the ^3H-thymidine uptake assay described in Examples 1 and 2 above. Briefly, the H2981 tumor cells were plated into 96-well microtiter plates in IMDM (10,000 cells/well) and were allowed to attached for 18 h at 37°C. The antibody-PVA conjugates, L6-PVA or 1F5-PVA, were then added at a concentration of 10 µg/ml of antibody and the plates were incubated for 30 min at 4°C. The wells were then washed four times with IMDM and APO was added at varying concentrations in IMDM. After two h, the wells were again washed, IMDM was added and the cells were left for 18 h at 37°C. At that point, ^3H-thymidine was added (1 µCi per well) and after 6 h, the plates were frozen at -70°C to detach the cells. After thawing, the cells were harvested onto glass fiber filters. The incorporation of ^3H-thymidine was measured in a Beckman 3801 scintillation counter and compared to cells treated with APO or adriamycin (ADM) alone.
# Alkaline phosphatase = assay: Hydrolysis of etoposide phosphate prodrugs by AP or L6-AP conjugate (HPLC); details: for hydrolysis by alkaline phosphatase, relative rate: Figure 5
# H2981 tumor cells [2] = system: H2981 tumor cells
# H3347 tumor cells [3] = assay: Clonogenic cytotoxicity (colony inhibition) assay; format: cell-based; details: Homo sapiens, 15 hours drug exposure, colonies counted 7-10 days later
# Method: The clonogenic cytotoxicity assay we used was the colony inhibition assay described by I. Hellstrom et al., "Colony Inhibition And Cytotoxicity Assays," in In Vitro Methods In Cell-Mediated Immunity, Bloom and Glade (ed.s), pp.- 409-14 (1971). The cells used to detect cytotoxicity were the H3347 tumor cells described above. Both the L6-AP and 96.5-AP conjugates were tested for their ability to convert prodrug into the free drug.
# Briefly, the H3347 cells (10^6/ml) were suspended in IMDM growth media (containing 10 µg/ml of each immunoconjugate based on antibody concentration) and incubated for 30 min at 37°C. The cells were washed twice, resuspended in IMDM, and the drug or prodrug in medium was added. Incubation at 37°C was continued for 15 hours. After washing twice, the cells were plated out and the number of colonies (>8 cells/colony) were counted 7-10 days later.
# H3347 tumor cells [4] = assay: 3H-thymidine uptake assay on H3347 cells; format: cell-based, human
# [5] = Stability of aqueous solutions of etoposide prodrugs; format: physicochemical
# Method: For example, either AP alone or the antibody-enzyme conjugate, L6-AP, produced as described above (final AP concentration 5 µg/ml) were added to a solution of etoposide-4'-phosphate (0.1 mM) in Tris buffer (100 mM) containing MgCl2 (1 mM) and ZnCl2 (0.1 mM) at pH 7.0. The reaction was monitored by HPLC using an IBM C-18 column (3 µ, 4.5 x 100 mm) and 50% aqueous methanol as eluant (0.5 ml/min, monitored at 254 nm). […] Aqueous solutions of etoposide phosphate or etoposide thiophosphate were stable for at least 8 hours at room temperature and for several days at 4°C.
# H3347 tumors = assay: In vivo antitumor effect, conjugate/etoposide phosphate, s.c. H3347 tumors; design: species or system nude mice; details: for antitumor effect on tumor growth: Figure 11, conjugates i.p. 18-24 h prior to EP; for tolerability in the animals: nude mice, maximum tolerated doses; for RESPONSE complete / RESPONSE partial / RESPONSE progression / RESPONSE stable: number of 16 tumors in each group, 23 days after tumor implant
# Method: First, Balb/C nu/nu female mice (4-6 wk old) (obtained from Life Sciences, St. Petersburg, Florida) were injected with 10^7 H3347 tumor cells subcutaneously (s.c.) in the left and right hind flanks. The tumor cells were obtained from in vitro cultures that had been suspended by treatment for 2 min with trypsin (0.5 g/l) and EDTA (0.2 g/l). The cells were washed twice with IMDM and incubated for 1 h at 37°C in IMDM with 10% fetal calf serum. The cells were washed, suspended in PBS, and kept at 4°C prior to injection. Both the localization and therapy studies described herein were initiated when the tumors reached an average size of 225 mm^3.
# Therapy experiments were performed on nude mice that had s.c. tumors approximately 225 mm^3 in volume. The conjugates, L6-AP and 1F5-AP, were administered (i.p.) 18-24 h prior to treatment with EP. Tumor growth was compared to that in untreated mice and in mice treated with maximum tolerated doses of etoposide or EP alone.
# More particularly, a group of 8 nude mice with bilateral H3347 tumors was treated with either etoposide (0.2 ml containing 1.2 mg etoposide in 2:3 DMSO:H2O) or EP (0.2 ml containing 2 mg EP in H2O) alone or with L6-AP (0.1 ml containing 300 µg antibody in PBS) or 1F5-AP (0.1 ml containing 300 µg antibody in PBS) followed by EP treatment Each experiment contained a control group of mice that was untreated. Tumor volumes were estimated at various days post tumor implant, using the formula: ([(perpendicular width)^2 /2)] X longest length [formula]
# H2981 tumor = assay: In vivo antitumor effect, conjugate/mitomycin prodrug and MOP/EP combinations, s.c. H2981 tumor; design: species or system nude Balb C nu/nu female mice; details: for antitumor activity in vivo: Figures 18 and 19, conjugates 18-24 h prior to prodrug; for time required to reach an average tumor volume of 750 mm^3: H2981 tumor, maximum tolerated doses
# Method: Therapy studies were then performed on nude Balb C nu/nu female mice (6 mice per treatment group) (4-6 wk old) obtained from Life Sciences (St. Petersburg, Fla.) that had been implanted (s.c., right hind flank) with a H2981 tumor obtained from in vivo sourcing. The experiments were run when the tumors reached approximately 100 mm^3 in volume. The L6-AP and 1F5-AP conjugates (0.1 ml containing 250 µg antibody in PBS) were each administered (i.p.) 18-24 h prior to treatment with MOP (0.2 ml containing 0.6 mg MOP in H2O). Tumor growth was compared to that observed in untreated mice and in mice treated with maximum tolerated doses of MOP (0.2 ml containing 0.6 mg MOP in H2O) or MOH (0.2 ml containing 0.2 mg MOH in H2O) alone.
# The prodrugs, EP and MOP, were prepared as described in Examples 1 and 2, respectively. Preparation of the L6-AP and 1F5-AP immunoconjugates is described in Example 1. The in vivo studies on nude mice were carried out as described in Examples 1 and 2 above. Thus, nude mice that had been implanted with a H2981 tumor were pre-exposed to the L6-AP or 1F5-AP conjugate 18-24 h prior to treatment with a combination of MOP/EP (0.2 ml containing 1 mg EP and 0.3 mg MOP in H2O). Tumor growth was compared to that observed in untreated mice and in mice treated with the MOP/EP combination alone.
# [6] = Relative toxicities of MOH and MOP in mice; design: species or system Balb C nu/nu mice; details: mouse, in vivo, ip; for LD50: two equal doses spaced 4 days apart; for MTD: given in 4 equal doses over a 25 day period, read-out: total amounts well tolerated
# Method: Prior to investigating the in vivo antitumor activity of MOP in combination with the L6-AP conjugate the relative toxicities of the prodrug and its released active derivative, MOH, were determined in Balb C nu/nu mice. […] Total amounts of up to 40 mg/kg of MOH and 100 mg/kg of MOP were well tolerated if given in 4 equal doses over a 25 day period.
# H2981 tumor cells [7] = assay: cells; details: Homo sapiens
# [8] = system: calf intestinal or human placental AP; assay: Reactivity of MOP with AP (HPLC); format: biochemical; details: MOP 1 mM, AP 1 µg/ml, 100 mM Tris pH 7.2, room temperature
# Method: The MOP prodrug was then tested for its reactivity with AP. […] The course of the reaction was monitored by HPLC using a C-18 column (4.6 x 150 mm) and the following conditions: detection at 280 nm; 30-95% methanol in acetate buffer (100 mM, pH 5.2) over 8 min, re-equilibration after 15 min; 0.8 ml/min flow rate. Under these conditions, MMC eluted at 7.0 min, MOH eluted at 8.5 min, and MOP eluted 4.0 min. […] HPLC served to confirm that the corresponding alcohol, MOH, was formed. Under the reaction conditions used, the half life for hydrolysis of MOP was about 10 min and the reaction went to completion within 40 min.
# [9] = by day 63, mitomycin derivatives (Table 3)
smiles,measurement,setting,value
"COc1cccc2c1C(=O)c1c(O)c3c(c(O)c1C2=O)C[C@@](O)(C(=O)CO)C[C@@H]3O[C@H]1C[C@H](NC(=O)COc2ccc(O)cc2)[C@H](O)[C@H](C)O1 [APO, N-(p-hydroxyphenoxyacetyl)adriamycin]",time to effect this level of hydrolysis (at least 80%),penicillin V amidase; L6-PVA conjugate at 10 µg/ml (2.5 µg/ml of PVA),120 min
same,hydrolysis of APO to adriamycin,"penicillin V amidase; within 40 minutes, PVA alone 50 µg/ml or L6-PVA conjugate 100 µg/ml",at least 80%
same,IC50,H2981 tumor cells [1],2000 nM
"COc1cc(C2c3cc4c(cc3C(OC3OC5COC(C)OC5C(O)C3O)C3COC(=O)C23)OCO4)cc(OC)c1OP(=O)(O)O (stereo not drawn) [EP, 4'-disodium phosphate ester of etoposide]","hydrolysis by alkaline phosphatase, relative rate",Alkaline phosphatase,hydrolyzed by the enzyme more rapidly than the etoposide thiophosphate prodrug
same,phosphate hydrolysis in the absence of enzyme,"Alkaline phosphatase; Tris buffer pH 7.0, no enzyme",no phosphate hydrolysis occurred
same,hydrolysis of the etoposide-4'-phosphate to etoposide,"Alkaline phosphatase; within 5 min of the start, AP free or as L6-AP conjugate, final AP concentration 5 µg/ml, prodrug 0.1 mM, pH 7.0",at least 85 X
same,kill,"H2981 tumor cells [2]; human, h2981 cells, 30 µM",20%
same,IC50,H3347 tumor cells [3],5800 nM
same,inhibition at 100 µM,"H3347 tumor cells [4]; Homo sapiens, at 100 µM",35%
same,stability of aqueous solutions,[5]; 4°C,several days
same,stability of aqueous solutions,[5]; room temperature,at least 8 hours
same,antitumor effect on tumor growth,H3347 tumors,greater antitumor effect than seen with etoposide itself
same,tolerability in the animals,H3347 tumors,less toxic to the animals
same,RESPONSE complete,H3347 tumors,0
same,RESPONSE partial,H3347 tumors,0
same,RESPONSE progression,H3347 tumors,6
same,RESPONSE stable,H3347 tumors,10
"CO[C@@]12[C@H](COC(N)=O)C3=C(C(=O)C(C)=C(N)C3=O)N1C[C@@H]1N[C@@H]12 [MMC, mitomycin C, reference compound]",IC50,H2981 tumor cells [2],~1000 nM
"CO[C@@]12[C@H](COC(N)=O)C3=C(C(=O)C(C)=C(NCCO)C3=O)N1C[C@@H]1N[C@@H]12 [MOH, 7-[(2-hydroxyethyl)amino]-9a-methoxymitosane, reference compound]",antitumor activity in vivo,H2981 tumor,significant antitumor activities in vivo
same,time required to reach an average tumor volume of 750 mm^3,H2981 tumor,45 days
same,TUMOR RESPONSES PROGRESSION,H2981 tumor; [9],6/6
same,LD50,[6],45 mg/kg
same,MTD,[6],≥ 40 mg/kg
same,IC50,H2981 tumor cells [7],~1000 nM
"CO[C@@]12[C@H](COC(N)=O)C3=C(C(=O)C(C)=C(NCCOP(=O)(O)O)C3=O)N1C[C@@H]1N[C@@H]12 [MOP, 7-(2'-aminoethyl phosphate)mitomycin]",cell kill,"H2981 tumor cells [2]; at 10 µM, H2981 cells",5%
same,antitumor activity in vivo,H2981 tumor,significant antitumor activities in vivo
same,time required to reach an average tumor volume of 750 mm^3,H2981 tumor,63 days
same,TUMOR RESPONSES PROGRESSION,H2981 tumor; [9],4/5
same,TUMOR RESPONSES STABLE,H2981 tumor; [9],1/5
same,LD50,[6],90 mg/kg
same,MTD,[6],≤ 100 mg/kg
same,time for the reaction to go to completion,[8],≤ 40 min
"COc1cc(C2c3cc4c(cc3C(OC3OC5COC(C)OC5C(O)C3O)C3COC(=O)C23)OCO4)cc(OC)c1OP(O)(O)=S (stereo not drawn) [etoposide thiophosphate, 4'-disodium thiophosphate ester of etoposide]","hydrolysis by alkaline phosphatase, relative rate",Alkaline phosphatase,increased stability towards hydrolysis
same,stability of aqueous solutions,[5]; 4°C,several days
same,stability of aqueous solutions,[5]; room temperature,at least 8 hours
"COc1cc([C@@H]2c3cc4c(cc3[C@@H](O[C@@H]3O[C@@H]5CO[C@@H](C)O[C@H]5[C@H](O)[C@H]3O)[C@H]3COC(=O)[C@H]23)OCO4)cc(OC)c1O [etoposide, reference compound]",IC50,H3347 tumor cells [3],200 nM
same,toxicity relative to EP,H3347 tumor cells [4],more than 100 fold
same,IC50,"H3347 tumor cells [4]; Homo sapiens, 6 h drug exposure",1000 nM
same,IC50,H2981 tumor cells [7],2000 nM
same,antitumor effect on tumor growth,H3347 tumors,very little effect on tumor growth
same,tolerability in the animals,H3347 tumors,higher doses were not well tolerated
same,RESPONSE complete,H3347 tumors,0
same,RESPONSE partial,H3347 tumors,0
same,RESPONSE progression,H3347 tumors,12
same,RESPONSE stable,H3347 tumors,4
